Publication PMC4990249, “Mitochondrial Probe Methyltriphenylphosphonium (TPMP) Inhibits the Krebs Cycle Enzyme 2-Oxoglutarate Dehydrogenase” (PLoS ONE, 2016)

Assays:
[1] = molecular target: T1, 2-oxoglutarate dehydrogenase complex (OGDHC) (Rattus norvegicus, UniProt Q01205+Q5XI78+Q6P6R2); test: biochemical; design: gene Ogdh
T1 sequence (Q5XI78 41-1023): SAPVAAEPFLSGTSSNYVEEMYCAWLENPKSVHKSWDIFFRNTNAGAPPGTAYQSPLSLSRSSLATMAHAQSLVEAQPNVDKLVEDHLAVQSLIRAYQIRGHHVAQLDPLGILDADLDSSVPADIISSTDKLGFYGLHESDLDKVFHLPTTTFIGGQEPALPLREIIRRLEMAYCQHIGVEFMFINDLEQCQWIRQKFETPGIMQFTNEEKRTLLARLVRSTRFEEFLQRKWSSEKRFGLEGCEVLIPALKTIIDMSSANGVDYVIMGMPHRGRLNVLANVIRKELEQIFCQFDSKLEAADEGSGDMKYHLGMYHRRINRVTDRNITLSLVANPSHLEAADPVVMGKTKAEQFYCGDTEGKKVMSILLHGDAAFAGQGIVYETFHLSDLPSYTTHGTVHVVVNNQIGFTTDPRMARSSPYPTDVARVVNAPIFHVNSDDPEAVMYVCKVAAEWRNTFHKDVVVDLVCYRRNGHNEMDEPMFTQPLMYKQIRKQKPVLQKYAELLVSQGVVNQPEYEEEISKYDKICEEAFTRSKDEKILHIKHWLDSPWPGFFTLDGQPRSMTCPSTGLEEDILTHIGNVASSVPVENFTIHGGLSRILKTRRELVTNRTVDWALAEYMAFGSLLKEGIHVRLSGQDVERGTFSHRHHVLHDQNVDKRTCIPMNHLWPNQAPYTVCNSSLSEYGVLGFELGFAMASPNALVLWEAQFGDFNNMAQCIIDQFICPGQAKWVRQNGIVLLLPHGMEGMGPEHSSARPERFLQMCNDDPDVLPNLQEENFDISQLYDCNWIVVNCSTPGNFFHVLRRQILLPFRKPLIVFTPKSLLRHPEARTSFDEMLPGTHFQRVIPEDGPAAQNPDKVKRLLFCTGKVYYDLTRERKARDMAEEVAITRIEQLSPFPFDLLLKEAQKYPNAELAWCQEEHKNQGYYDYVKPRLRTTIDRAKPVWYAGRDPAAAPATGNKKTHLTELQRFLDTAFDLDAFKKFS
T1 sequence (Q01205 69-454): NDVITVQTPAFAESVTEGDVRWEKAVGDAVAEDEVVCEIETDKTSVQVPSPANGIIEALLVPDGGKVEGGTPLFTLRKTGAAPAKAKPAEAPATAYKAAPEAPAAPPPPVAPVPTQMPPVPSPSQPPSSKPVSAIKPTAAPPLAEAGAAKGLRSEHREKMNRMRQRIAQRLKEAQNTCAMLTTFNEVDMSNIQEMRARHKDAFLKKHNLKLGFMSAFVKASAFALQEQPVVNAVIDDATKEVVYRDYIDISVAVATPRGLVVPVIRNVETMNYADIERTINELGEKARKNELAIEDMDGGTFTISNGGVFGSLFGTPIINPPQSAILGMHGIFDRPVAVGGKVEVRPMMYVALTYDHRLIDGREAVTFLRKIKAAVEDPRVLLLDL
T1 sequence (Q6P6R2 36-509): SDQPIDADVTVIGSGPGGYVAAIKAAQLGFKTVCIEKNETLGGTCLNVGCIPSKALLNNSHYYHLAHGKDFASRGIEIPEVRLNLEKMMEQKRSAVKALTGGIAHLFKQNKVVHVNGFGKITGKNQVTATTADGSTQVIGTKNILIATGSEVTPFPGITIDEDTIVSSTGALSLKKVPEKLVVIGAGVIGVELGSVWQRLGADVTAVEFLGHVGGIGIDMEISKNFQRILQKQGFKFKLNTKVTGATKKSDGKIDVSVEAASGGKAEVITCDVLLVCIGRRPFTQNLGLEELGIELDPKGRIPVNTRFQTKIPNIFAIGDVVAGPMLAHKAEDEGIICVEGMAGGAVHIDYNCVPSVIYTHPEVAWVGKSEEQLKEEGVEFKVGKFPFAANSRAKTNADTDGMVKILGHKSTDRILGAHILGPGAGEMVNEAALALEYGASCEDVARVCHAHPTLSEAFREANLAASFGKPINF

[2] = molecular target: T2, 2-oxoglutarate dehydrogenase complex (OGDHC) (Sus scrofa, UniProt K9IVI1+P09623+Q9N0F1); test: Michaelis-Menten kinetics of purified complex, NADH absorbance at […] nm, […] TPMP; assay type: biochemical
T2 construct: gene OGDH; purified OGDHC enzyme (Sigma K1502), intact complex; with E2 component (dihydrolipoyl transsuccinylase) and E3 component (dihydrolipoyl dehydrogenase) of the complex
T2 sequence (K9IVI1 41-1023): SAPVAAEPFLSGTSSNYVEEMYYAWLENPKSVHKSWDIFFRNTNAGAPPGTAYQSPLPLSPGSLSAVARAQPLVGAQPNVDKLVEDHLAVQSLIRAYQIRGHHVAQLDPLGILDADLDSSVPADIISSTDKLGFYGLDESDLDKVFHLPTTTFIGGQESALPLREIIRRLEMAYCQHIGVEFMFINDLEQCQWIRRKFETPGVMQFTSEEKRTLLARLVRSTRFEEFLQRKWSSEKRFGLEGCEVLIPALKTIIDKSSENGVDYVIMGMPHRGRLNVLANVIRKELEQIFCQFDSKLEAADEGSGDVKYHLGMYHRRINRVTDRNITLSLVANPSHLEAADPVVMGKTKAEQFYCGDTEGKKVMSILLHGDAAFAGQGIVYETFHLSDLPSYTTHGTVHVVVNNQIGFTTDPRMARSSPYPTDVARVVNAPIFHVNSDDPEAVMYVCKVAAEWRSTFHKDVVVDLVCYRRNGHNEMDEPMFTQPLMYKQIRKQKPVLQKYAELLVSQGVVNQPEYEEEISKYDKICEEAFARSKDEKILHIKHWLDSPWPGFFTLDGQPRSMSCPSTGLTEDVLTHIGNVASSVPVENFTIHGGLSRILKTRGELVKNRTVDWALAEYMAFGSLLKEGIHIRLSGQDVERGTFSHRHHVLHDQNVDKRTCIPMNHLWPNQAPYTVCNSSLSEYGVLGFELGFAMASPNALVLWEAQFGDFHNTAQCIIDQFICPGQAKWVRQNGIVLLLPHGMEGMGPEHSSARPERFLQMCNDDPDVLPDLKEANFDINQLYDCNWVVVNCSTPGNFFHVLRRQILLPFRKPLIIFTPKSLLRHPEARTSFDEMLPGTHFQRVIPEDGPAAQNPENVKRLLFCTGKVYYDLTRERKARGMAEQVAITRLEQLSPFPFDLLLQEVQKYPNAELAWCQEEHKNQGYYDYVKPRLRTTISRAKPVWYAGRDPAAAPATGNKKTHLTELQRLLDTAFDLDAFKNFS
T2 sequence (Q9N0F1 69-455): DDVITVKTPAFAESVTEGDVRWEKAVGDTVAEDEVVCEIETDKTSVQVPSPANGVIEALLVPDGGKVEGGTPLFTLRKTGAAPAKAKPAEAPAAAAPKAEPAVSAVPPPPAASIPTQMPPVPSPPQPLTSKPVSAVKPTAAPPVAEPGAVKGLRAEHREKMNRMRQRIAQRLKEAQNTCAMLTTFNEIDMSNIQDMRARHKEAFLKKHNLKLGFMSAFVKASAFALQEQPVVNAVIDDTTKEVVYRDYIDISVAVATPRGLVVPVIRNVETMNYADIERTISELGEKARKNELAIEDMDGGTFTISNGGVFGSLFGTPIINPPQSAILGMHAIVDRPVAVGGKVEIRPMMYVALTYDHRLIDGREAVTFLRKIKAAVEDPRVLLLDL
T2 sequence (P09623 36-509): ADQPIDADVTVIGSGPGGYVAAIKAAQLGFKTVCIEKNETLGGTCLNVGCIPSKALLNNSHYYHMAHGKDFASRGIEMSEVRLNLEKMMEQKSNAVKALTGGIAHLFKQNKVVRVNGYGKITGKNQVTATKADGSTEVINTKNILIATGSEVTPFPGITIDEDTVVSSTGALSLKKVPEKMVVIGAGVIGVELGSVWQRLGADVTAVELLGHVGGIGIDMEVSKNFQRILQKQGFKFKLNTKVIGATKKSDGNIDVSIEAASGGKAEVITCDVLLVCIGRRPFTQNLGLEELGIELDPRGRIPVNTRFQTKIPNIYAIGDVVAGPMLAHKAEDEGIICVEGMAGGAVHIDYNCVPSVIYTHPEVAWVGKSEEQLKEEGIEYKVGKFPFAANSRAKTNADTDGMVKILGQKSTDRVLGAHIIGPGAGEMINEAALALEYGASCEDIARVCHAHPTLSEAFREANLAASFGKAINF

[3] = molecular target: T1, 2-oxoglutarate dehydrogenase complex (OGDHC); test: spectrophotometric OGDHC activity (A340) at […] compound in muscle homogenate; assay type: cell-based; design: gene Ogdh; native complex in rat skeletal muscle homogenate enriched in mitochondrial fraction; with E2 and E3 components of the complex; settings: read-out: % of control activity at 1 mM

Compound | IC50 [1] | Michaelis-Menten kinetics of purified complex, NADH absorbance at 340 nm, 0-5 mM [2] | remaining activity at 1000 µM [3]
C[P+](c1ccccc1)(c1ccccc1)c1ccccc1 [TPMP, Methyltriphenylphosphonium] | 3.93 mM | The pattern of decreasing Vmax and increasing Km fits in a mixed-inhibition model. | 
CCC[P+](c1ccccc1)(c1ccccc1)c1ccccc1 [Propyl, propyltriphenylphosphonium] |  |  | 60.7%
CCCCC[P+](c1ccccc1)(c1ccccc1)c1ccccc1 [Pentyl, pentyltriphenylphosphonium] |  |  | 15.9%
